Experimental data as given in publication PMC12845078 (Pharmaceuticals, 2025).
Marks after values point to notes of the source that are not given here.

How the values were obtained:
[1] = Pharmacokinetics of MT, 6-HMT and CBD in beagles after oral administration; conditions: beagles, p.o.
Method: Twelve male healthy adult beagles (weighing 10 ± 2 kg) were randomly divided into two groups. […] The drugs were dissolved in a physiological saline solution containing 5% castor oil, with an administration volume of 2 mL/kg. Blood samples were collected at the time points of pre-administration and 0.083, 0.25, 0.5, 0.75, 1, 1.5, 2, 4, 6, 8, and 12 h post-administration.
(§1) The column temperature was set at 40 °C.

[2] = Pharmacokinetics of MT, 6-HMT and CBD in SD rats (i.v. and oral); conditions: rats
Method: The drugs were dissolved in the same manner as described previously, with an administration volume of 5 mL/kg for all groups. Blood samples were collected at the time points of pre-administration and 0.033 (only for the intravenous administration group), 0.083, 0.25, 0.5, 0.75, 1, 1.5, 2, 4, 6, 8, and 12 h post-administration.
as §1

[3] = Pharmacokinetics of MT and CBD in rats after pre-administration of ABT; conditions: both groups after ABT co-administration, all sampling time points; below lower limit of quantification
Method: Twelve SD rats were randomly divided into two groups. Both groups were first given an intragastric administration of 1-aminobenzotriazole (ABT) at a dose of 200 mg/kg. […] The administration volume for all groups was 5 mL/kg. […] Approximately 50 μL of venous blood were collected into heparin sodium anticoagulant tubes and placed on ice. The sample processing and storage methods were the same as described previously.
Subsequently, the resultant mixture was vortexed for 1 minute and centrifuged at 4 °C for 10 min at 18,800× g. […] The lowest limit of quantification (LLOQ) was established at 2 ng/mL.
Kromasil 100-5-C8 (2.1 × 50 mm) was selected for the separation of samples. The mobile phase consisted of solvent A (water with 0.1% formic acid and 5 mM ammonium acetate) and solvent B (methanol with 0.1% formic acid). […] The column temperature was set at 40 °C. The two eluents were 0.1% formic acid and 5 mM ammonium acetate in water (A) and 0.1% formic acid in methanol (B). […] The main mass spectrometry detection parameters were: dry gas 10 L/min, heated gas 10 L/min, collision gas 270 kPa, ion source temperature 300 °C, desolvation temperature 250 °C, and heating module temperature 400 °C.
Pharmacokinetic parameters: GraphPad Prism 10.1 software was utilized to draw the curves. Noncompartmental analysis was selected to calculate the major PK parameters, including clearance (CL), volume (V), half-life (t1/2), peak concentration (Cmax), and area under the curve (AUC), using WinNonlin 8.1.

## COc1cc2c(CCNC(C)=O)c[nH]c2cc1O [6-HMT, 6-Hydroxymelatonin]
[1]; MT + CBD (3 + 3) mg/kg
  AUC(0–t): 192.4 (72.83) h × ng/mL
  AUC(0–∞): 245.7 (69.0) h × ng/mL
  Cmax: 62.9 (18.18) ng/mL
  MRT(0–t): 2.94 (0.83) h
  Tmax: 0.58 (0.20) h
  t1/2: 4.11 (1.69) h
[1]; MT + CBD (3 + 3) mg/kg vs MT 3 mg/kg
  ratio of AUC(0–t),6-HMT to AUC(0–t),MT with CBD, as percent of MT alone: 26%
[1]; MT + Vehicle 3 mg/kg
  AUC(0–t): 179.7 (36.31) h × ng/mL
  AUC(0–∞): 202.1 (46.02) h × ng/mL
  Cmax: 74.80 (10.94) ng/mL
  MRT(0–t): 3.60 (0.81) h
  Tmax: 0.29 (0.10) h
  t1/2: 3.33 (1.11) h
[2]; i.v., MT + CBD (1 + 1) mg/kg
  AUC(0–t): 33.63 (5.10) h × ng/mL
  MRT(0–t): 0.38 (0.06) h
  t1/2: 0.28 (0.04) h
[2]; p.o., MT + CBD (5 + 5) mg/kg
  AUC(0–1h): 77.02 (26.81) h × ng/mL
  AUC(0–t): 110.2 (39.21) h × ng/mL
  Cmax: 125.1 (33.41) ng/mL
  MRT(0–t): 0.88 (0.11) h
  Tmax: 0.33 (0.13) h
  t1/2: 1.72 (1.48) h
[2]; p.o., MT + CBD (5 + 20) mg/kg
  AUC(0–1h): 48.98 (8.27) ** h × ng/mL
  AUC(0–t): 123.2 (15.77) h × ng/mL
  Cmax: 64.17 (10.40) ** ng/mL
  MRT(0–t): 2.37 (0.38) ** h
  Tmax: 0.33 (0.20) h
  t1/2: 3.41 (1.90) h
[2]; p.o., MT + Vehicle 5 mg/kg
  AUC(0–1h): 90.04 (26.46) h × ng/mL
  AUC(0–t): 125.2 (21.64) h × ng/mL
  Cmax: 145.6 (40.82) ng/mL
  MRT(0–t): 1.41 (0.59) h
  Tmax: 0.25 (0) h
  t1/2: 1.56 (0.90) h
[3]
  plasma concentration: < 2 ng/mL
